For one series, the system named is Ba/F3 LMNA-NTRK1-G595R. Put plainly: In-vitro cell viability (CTG), NTRK mutant cells. The format is cell-based. To be noted: Mus musculus, read-out: Ba/F3 LMNA-NTRK1-G595R IC50. The protocol: (§1) Hefei Precedo Biomedical Technology Co., Ltd. was commissioned to complete the testing example, and NTRK mutant cells used were constructed by this company.
(§2) Inhibitory effects of the compound of the present application on growth of three NTRK mutant cells (Ba/F3 LMNA-NTRK1-G667C, Ba/F3 EVT6-NTRK3-G623R and Ba/F3 LMNA-NTRK1-G595R) were measured.
(§3) Cells in logarithmic growth phase were collected and counted by a blood platelet counter, a cell concentration was adjusted to 3 to 6×10^4 cell/mL, 90 μL of cell suspension was added into a 96-well plate, and cells in the 96-well plate were cultured at 37° C. under 5% CO2 and 95% humidity overnight.
(§4) The to-be-tested compound was prepared into a 10 times drug solution in a medium containing 1% DMSO, with […] and the drug solution was diluted by 3 times in sequence to obtain drug solutions with 9 concentrations in total. […] 10 μL of prepared drug solution was added into each well of the 96-well plate in which the cells were inoculated. Then, 90 μL of medium containing 1% DMSO was added to obtain a drug solution with a highest concentration of 1 μM, and the drug solution was diluted by 3 times in sequence to obtain drug solutions with 9 concentrations in total. A final concentration of DMSO in each well was 0.1%, and three multiple wells were provided for the drug of each concentration. The cells in the 96-well plate in which the drug has been added were cultured at 37° C. under 5% CO2 and 95% humidity for 72 hours, and then subjected to CTG analysis.
(§5) An equal volume of CTG solution was added into each well, the 96-well plate was placed at room temperature for 20 minutes to stabilize a luminescence signal, and a luminescence value was read.
(§6) Data was analyzed by GraphPad Prism 7.0 software, and fitted by nonlinear S-curve regression to obtain a dose-effect curve, from which an IC50 value was calculated. Cell survival rate (%)=(Lum to-be-tested drug−Lum medium control)/(Lum cell control−Lum medium control)×100%.

A further series concerns Ba/F3 LMNA-NTRK1-G667C. Put plainly: In-vitro cell viability (CTG), NTRK mutant cells. To be noted: Mus musculus, read-out: Ba/F3 LMNA-NTRK1-G667C IC50. Format: cell-based. The protocol: as §1, §2, §3, §4, §5, §6
The subject of another series is Ba/F3 EVT6-NTRK3-G623R. Put plainly: In-vitro cell viability (CTG), NTRK mutant cells. The format is cell-based. To be noted: for IC50: Mus musculus, read-out: Ba/F3 EVT6-NTRK3-G623R IC50. The protocol: as §1, §2, §3, §4, §5, §6
The test system of another series is MDR1 (P-gp). The series is described as follows: Bidirectional permeability study on MDCK-MDR1 cell line. Format: in vitro ADME. To be noted: dog; for efflux ratio at 2 h, 1 μM: MDCK-MDR1, pH 7.4, read-out: Excretion ratio = Papp (B-A)/Papp (A-B); for Papp A→B at 2 h, 1 μM / Papp B→A at 2 h, 1 μM: pH 7.4, MDCK-MDR1, 1 μM. How it is done: MDCK-MDR1 cells were purchased from Netherlands Cancer Institute, and cells between 10 and 20 generations were used.
1) Before cell inoculation, 50 μL of cell medium was added into each well of an upper chamber of Transwell, and […] of cell medium was added into a lower culture plate. The culture plate was placed in an incubator at 37° C. under 5% CO2 for incubation for 1 hour, and then could be used for inoculating cells.
2) The MDCK-MDR1 cells were resuspended with the medium, so that a final concentration was 1.56×10^6 cells/mL. A cell suspension was added into an upper chamber of a 96-well Transwell culture plate according to 50 μL per well. The incubator was set at 37° C. under 5% CO2, and was ensured to have a relative humidity of 95% for culturing for 4 days to 8 days. The medium was replaced 48 hours after inoculation, the culturing lasted for 4 days to 8 days, and the medium was replaced every other day.
4) Calculation of resistance value: measured resistance value (ohms)×film area (cm^2)=TEER value (ohm cm^2), and if the TEER value was less than 42 ohms cm^2, the well could not be used for a penetration experiment.
1) The MDCK-MDR1 Transwell culture plate was taken from the incubator. The cell monolayer film was moistened and washed twice with a preheated HBSS (25 mM HEPES, pH 7.4) buffer, and incubated at 37° C. for 30 minutes.
2) A stock solution of the control compound and the test compound was diluted in DMSO to obtain a 200 μM solution, and then diluted with HBSS (10 mM HEPES, pH 7.4) to obtain a 1 μM working solution. A final concentration of DMSO in the incubation system was 0.5%.
3) A transfer rate of the compound from a top end to a base end was measured. 125 μL of working solution was added into the upper chamber (top end), then 50 μL of sample solution was immediately transferred from a lower chamber (base end) to a 96-well plate filled with 200 μL of acetonitrile containing an internal standard as a 0-minute administration sample (A-B) for detection, and 235 μL of HBSS (25 mM HEPES, pH 7.4) buffer was added into the lower chamber. The internal standard contained 100 nM alprazolam, 200 nM caffeine and 100 nM tolbutamide. The 50 μL of sample solution transferred above was vortexed at a speed of 1,000 rpm for 10 minutes.
4) A transfer rate of the compound from the base end to the top end was measured. 285 μL of working solution was added into the lower chamber (base end), then 50 μL of sample solution was immediately transferred from the upper chamber (top end) to a 96-well plate filled with 200 μL of acetonitrile containing an internal standard as a 0-minute administration sample (B-A) for detection, and 75 μL of HB SS (25 mM HEPES, pH 7.4) buffer was added into the upper chamber. The internal standard contained 100 nM alprazolam, 200 nM caffeine and 100 nM tolbutamide. The 50 μL of sample solution transferred above was vortexed at a speed of 1,000 rpm for 10 minutes. The experiment from the top end to the base end and the experiment from the base end to the top end should be carried out simultaneously.
5) After adding the buffers into the lower chamber and the upper chamber respectively, the MDCK-MDR1 Transwell culture plate was incubated at 37° C. for 2 hours.
6) After finishing incubating, 50 μL of sample solutions were respectively taken from an administration side (the upper chamber: Ap→Bl flux, the lower chamber: Bl→Ap) and a receiving side (the lower chamber: Ap→Bl flux, the upper chamber Bl→Ap) and added into new 96-well plates, and 4 times volume of […] containing the internal standard was added into the well plates. The internal standard substance contained 100 nM alprazolam, 200 nM caffeine and 100 nM tolbutamide. The solution was vortexed for 10 minutes, and then centrifuged at 3,220 g for 40 minutes. 100 μL of supernatant was sucked and mixed with equal volume of ultrapure water, and then subjected to LC-MS/MS analysis. […]

Read-outs that look alike come from different tables or passages of the source.

For `O=C1N[C@H]2C[C@H](C2)Oc2ncc(F)cc2[C@H]2CCCN2c2ccn3ncc1c3n2` (stereo in doubt) [Positive control 1, reference compound], the IC50 was 1.8 nM with Ba/F3 LMNA-NTRK1-G595R (BaF3, 72 hours, CTG); 1.8 nM in the series with Ba/F3 LMNA-NTRK1-G667C (BaF3, 72 hours, CTG); 18 nM in the series on Ba/F3 EVT6-NTRK3-G623R (BaF3, 72 hours, CTG).

For the compound `O=C1N[C@H]2C[C@H](C2)Oc2ncc(F)cc2[C@H]2CCCN2c2nc3c1cnn3cc2F` [Example 2, ((1^3E,1^4E,2^2R,5^1S,5^3S)-1^6,3^5-difluoro-4-oxa-6-aza-1(5,3)-pyrazolo[1,5-a]pyrimidine-3(3,2)-pyridine-2(1,2)-pyrrolidine-5(1,3)-cyclobutancycloheptan-7-one], the IC50 in the series on Ba/F3 LMNA-NTRK1-G595R (BaF3, 72 h) came out at 2.3 nM; in the series on Ba/F3 LMNA-NTRK1-G667C (BaF3, 72 h) it was 3 nM; in the series with Ba/F3 EVT6-NTRK3-G623R (BaF3, 72 h) it was 14 nM.

With `C[C@H]1Nc2nc3c(cnn3cc2F)C(=O)N[C@H]2C[C@H](C2)Oc2ncc(F)cc21` [Example 3, (3^1S,3^3S,6^3E,6^4E,8R)-1^5,6^6-difluoro-8-methyl-2-oxo-4,7-diaza-6(3,5)-pyrazolo[1,5-a]pyrimidine-1(2,3)-pyridine-3(1,3)-cyclobutylcyclooctane-5-one], the IC50 in the series with Ba/F3 LMNA-NTRK1-G595R (BaF3, 72 hours, CTG) is 4.5 nM; in the series with Ba/F3 LMNA-NTRK1-G667C (BaF3, 72 hours, CTG), 3.2 nM; in the series with Ba/F3 EVT6-NTRK3-G623R (BaF3, 72 hours, CTG) it was 25 nM. For the same compound, the “inhibitory activity higher than that of the positive control compound 2” value in the series on Ba/F3 EVT6-NTRK3-G623R (Ba/F3 EVT6-NTRK3-G623R, data of Table 2) was 4 times. For the same compound, the efflux ratio at 2 h, 1 μM with MDR1 (P-gp) is 4.67. In addition, the apical-to-basolateral permeability (Papp A→B) – broadly, how fast a substance crosses the layer from the apical side – at 2 h, 1 μM in the series on MDR1 (P-gp) is 11.1 ×10⁻⁶ cm/s. Moreover, the Papp B→A (usually the apparent permeability from the basolateral to the apical side of a cell layer) at 2 h, 1 μM in the series on MDR1 (P-gp) was 51.9 ×10⁻⁶ cm/s.

Consider `C[C@H]1Nc2ccn3ncc(c3n2)C(=O)N[C@H]2C[C@H](C2)Oc2ncc(F)cc21` [Positive control 2, reference compound], for which the IC50 worked out at 13 nM with Ba/F3 LMNA-NTRK1-G595R (BaF3, 72 hours, CTG); 6.5 nM with Ba/F3 LMNA-NTRK1-G667C (BaF3, 72 hours, CTG); 107 nM in the series on Ba/F3 EVT6-NTRK3-G623R (BaF3, 72 hours, CTG). Moreover, the efflux ratio at 2 h, 1 μM in the series with MDR1 (P-gp) turned out to be 19.4. In the series with MDR1 (P-gp), the apical-to-basolateral permeability (Papp A→B) at 2 h, 1 μM worked out at 3.31 ×10⁻⁶ cm/s. In the series on MDR1 (P-gp), this compound came in with a basolateral-to-apical permeability (Papp B→A) at 2 h, 1 μM of 64.4 ×10⁻⁶ cm/s.

The values above are taken from patent US12428433B2, “Fluorine-containing heterocyclic derivatives with macrocyclic structure and use thereof” (ScinnoHub Pharmaceutical Co., Ltd, priority 2019, dated 2025).
